Consider 23 compounds from PubChem BioAssay AID330 (DTP/NCI, 2004).

Where “and” joins values, the source holds several entries; their conditions need not be identical. Identical values can stand only once. Toxic doses and inconclusive results are not listed.

In the assay the test system is P388 leukemia ip, CD2F1 mice, survival T/C. The assay is described as follows: NCI In Vivo Anticancer Drug Screen. Data for tumor model P388 Leukemia (intraperitoneal) in CD2F1 (CDF1) mice. The following applies: endpoint: median survival time, higher = longer survival. The method, boiled down: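 Mice carrying the transplanted tumor received test compound or vehicle. Survival was recorded in each group, and the value is the treated-group measurement divided by that of the vehicle-treated control group.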

The mark [1] stands for this setting: dose: 50.0 mg/kg/injection, schedule: Q01DX009 (ip), vehicle: saline with Tween-80.
Setting [2] is: dose: 50.0 mg/kg/injection, schedule: Q01DX009 (ip), vehicle: Klucel (hydroxypropylcellulose) (HPC).
The mark [3] stands for this setting: dose: 100.0 mg/kg/injection, schedule: Q01DX009 (ip), vehicle: Klucel (hydroxypropylcellulose) (HPC).
[4] abbreviates: dose: 200.0 mg/kg/injection, schedule: Q01DX009 (ip), vehicle: Klucel (hydroxypropylcellulose) (HPC).
Where [5] appears, read: dose: 60.0 mg/kg/injection, schedule: Q01DX005 (ip), vehicle: Klucel (hydroxypropylcellulose) (HPC).
[6] abbreviates: dose: 120.0 mg/kg/injection, schedule: Q01DX005 (ip), vehicle: Klucel (hydroxypropylcellulose) (HPC).
Where [7] appears, read: dose: 50.0 mg/kg/injection, schedule: Q01DX005 (ip), vehicle: saline with Tween-80.
The mark [8] stands for this setting: dose: 100.0 mg/kg/injection, schedule: Q01DX005 (ip), vehicle: saline with Tween-80.
Where [9] appears, read: dose: 100.0 mg/kg/injection, schedule: Q01DX009 (ip), vehicle: saline with Tween-80.
Setting [10] is: dose: 200.0 mg/kg/injection, schedule: Q01DX009 (ip), vehicle: saline with Tween-80.
Where [11] appears, read: dose: 60.0 mg/kg/injection, schedule: Q01DX005 (ip), vehicle: saline with Tween-80.
Where [12] appears, read: dose: 120.0 mg/kg/injection, schedule: Q01DX005 (ip), vehicle: saline with Tween-80.
[13] abbreviates: dose: 240.0 mg/kg/injection, schedule: Q01DX005 (ip), vehicle: saline with Tween-80.
The mark [14] stands for this setting: dose: 240.0 mg/kg/injection, schedule: Q01DX005 (ip), vehicle: Klucel (hydroxypropylcellulose) (HPC).

In the case of `COC(=O)COc1cc2c(cc1C(C)c1ccc(OCc3ccccc3)cc1)OCO2` (stereo not drawn), the T/C (dose: 50.0 mg/kg/injection, schedule: Q01DX005 (ip), vehicle: distilled water + Tween-80) is 89 % of control; the T/C (dose: 100.0 mg/kg/injection, schedule: Q01DX005 (ip), vehicle: distilled water + Tween-80) is 99 % of control; the T/C (dose: 200.0 mg/kg/injection, schedule: Q01DX005 (ip), vehicle: distilled water + Tween-80) is 106 % of control and 88 % of control.
`NNC(=O)C(=O)NCc1ccco1`: the T/C (dose: 12.5 mg/kg/injection, schedule: Q01DX009 (ip), vehicle: saline with Tween-80) is 88 % of control; the T/C (dose: 25.0 mg/kg/injection, schedule: Q01DX009 (ip), vehicle: saline with Tween-80) is 98 % of control; the T/C under setting [1] is 95 % of control.
As for `FC(F)(F)c1cccc(C(OCC2CO2)(C(F)(F)F)C(F)(F)F)c1` (stereo not drawn), the T/C is 99 % of control under setting [2], 96 % of control under setting [3] and 102 % of control under setting [4].
Take `C/C(=N/NC(N)=O)c1cn[nH]c1C`: the T/C under setting [5] was 117 % of control and the T/C under setting [6] was 124 % of control.
`COC(=O)[C@@]12OC[C@]34[C@H]([C@@H](O)[C@@H]1O)[C@@]1(C)[C@H](O)C(=O)C=C(C)[C@@H]1C[C@H]3OC(=O)C(OC(C)=O)[C@@H]24` (stereo partly drawn): the T/C (dose: 0.1 micrograms/kg/injection, schedule: Q01DX009 (ip), vehicle: saline + alcohol) is 96 % of control; the T/C (dose: 0.2 micrograms/kg/injection, schedule: Q01DX009 (ip), vehicle: saline + alcohol) is 102 % of control; the T/C (dose: 0.5 micrograms/kg/injection, schedule: Q01DX009 (ip), vehicle: saline + alcohol) is 105 % of control; the T/C (dose: 1.0 micrograms/kg/injection, schedule: Q01DX009 (ip), vehicle: saline + alcohol) was 93 % of control; the T/C (dose: 2.0 micrograms/kg/injection, schedule: Q01DX009 (ip), vehicle: saline + alcohol) is 100 % of control; the T/C (dose: 4.0 micrograms/kg/injection, schedule: Q01DX009 (ip), vehicle: saline + alcohol) was 88 % of control.
`COc1ccc(-c2ccc(OC)c(OC)c2OC)c(N)c1`: the T/C is 99 % of control and 110 % of control (dose: 100.0 mg/kg/injection, schedule: Q04DX003 (ip), vehicle: saline with Tween-80); 104 % of control and 110 % of control (dose: 200.0 mg/kg/injection, schedule: Q04DX003 (ip), vehicle: saline with Tween-80); 114 % of control and 115 % of control (dose: 400.0 mg/kg/injection, schedule: Q04DX003 (ip), vehicle: saline with Tween-80).
With `CCSc1n[nH]c(=O)n1C`, the T/C is, setting by setting: (dose: 50.0 mg/kg/injection, schedule: Q01DX005 (ip), vehicle: saline) 99 % of control and 110 % of control; (dose: 100.0 mg/kg/injection, schedule: Q01DX005 (ip), vehicle: saline) 108 % of control and 114 % of control and 97 % of control; (dose: 200.0 mg/kg/injection, schedule: Q01DX005 (ip), vehicle: saline) 108 % of control and 121 % of control and 98 % of control; (dose: 400.0 mg/kg/injection, schedule: Q01DX005 (ip), vehicle: saline) 101 % of control and 109 % of control.
In the case of `COc1ccc2[nH]c(=O)c(C(C)=O)c(O)c2c1`, the T/C is 103 % of control under setting [7]; 105 % of control under setting [8]; 101 % of control (dose: 200.0 mg/kg/injection, schedule: Q01DX005 (ip), vehicle: saline with Tween-80).
Take `COc1cc(CC#N)c(S(=O)O)cc1OC`: the T/C is 116 % of control under setting [1], 109 % of control under setting [9] and 114 % of control under setting [10].
With `CN(C(=S)NNC(=O)C1CCC(=O)N1)c1ccccc1` (stereo not drawn), the T/C is, setting by setting: under setting [11], 99 % of control; under setting [12], 98 % of control; under setting [13], 103 % of control.
As to `COc1ccc2c(=O)cc(-c3ccccc3)sc2c1`, the T/C reads like this: under setting [5], 106 % of control; under setting [6], 104 % of control; under setting [14], 98 % of control.
With `O=C(NC(Cc1ccccc1)C(=O)O)c1ccc([N+](=O)[O-])cc1` (stereo not drawn), the T/C is, setting by setting: (dose: 25.0 mg/kg/injection, schedule: Q01DX009 (ip), vehicle: other) 97 % of control; (dose: 50.0 mg/kg/injection, schedule: Q01DX009 (ip), vehicle: other) 89 % of control; (dose: 100.0 mg/kg/injection, schedule: Q01DX009 (ip), vehicle: other) 104 % of control.
With `Cc1c(-c2ccccc2)nnn1-c1ccc(F)cc1F`, the T/C runs as follows: under setting [11], 101 % of control; under setting [12], 99 % of control; under setting [13], 92 % of control.
Take `ClCc1nnc(-c2ccccc2)o1`: the T/C runs as follows: under setting [2], 100 % of control; under setting [3], 95 % of control.
As for `O=C(CC(=O)N1CCN(c2ccccn2)CC1)N1CCN(c2ccccn2)CC1`, the T/C is, setting by setting: (dose: 50.0 mg/kg/injection, schedule: Q01DX009 (ip), vehicle: saline) 101 % of control; (dose: 100.0 mg/kg/injection, schedule: Q01DX009 (ip), vehicle: saline) 102 % of control.
`O=CC(=C\c1cccs1)/C(C=O)=C\c1cccs1`: the T/C (dose: 12.5 mg/kg/injection, schedule: Q01DX005 (ip), vehicle: saline with Tween-80) is 107 % of control; the T/C (dose: 25.0 mg/kg/injection, schedule: Q01DX005 (ip), vehicle: saline with Tween-80) is 108 % of control; the T/C under setting [7] is 108 % of control and 114 % of control; the T/C under setting [8] is 109 % of control.
Regarding `CC(=O)C1=CC[C@H]2[C@@H]3C=CC4=CC(=O)CC[C@]4(C)[C@H]3C[C@@H](O)[C@]12C`, the T/C was 99 % of control (dose: 12.5 mg/kg/injection, schedule: Q01DX005 (ip), vehicle: Klucel (hydroxypropylcellulose) (HPC)); 96 % of control (dose: 25.0 mg/kg/injection, schedule: Q01DX005 (ip), vehicle: Klucel (hydroxypropylcellulose) (HPC)); 107 % of control (dose: 50.0 mg/kg/injection, schedule: Q01DX005 (ip), vehicle: Klucel (hydroxypropylcellulose) (HPC)); 99 % of control (dose: 100.0 mg/kg/injection, schedule: Q01DX005 (ip), vehicle: Klucel (hydroxypropylcellulose) (HPC)); 106 % of control (dose: 200.0 mg/kg/injection, schedule: Q01DX005 (ip), vehicle: Klucel (hydroxypropylcellulose) (HPC)).
For `Cc1ccnc(NS(=O)(=O)c2ccc(N=Nc3c(O)n(-c4ccccc4)n(-c4ccccc4)c3=O)cc2)n1`, the T/C is 86 % of control under setting [2], 86 % of control under setting [3] and 91 % of control under setting [4].
Turning to `CCOC(=O)c1ccc(NC(=O)Nc2ccc(OC)cc2Cl)cc1`, the T/C is 91 % of control under setting [5], 93 % of control under setting [6] and 96 % of control under setting [14].
Regarding `C#CCNCCCn1c(=O)nc2n(-c3ccccc3)c3ccccc3nc-2c1=O`, the T/C runs as follows: (dose: 25.0 mg/kg/injection, schedule: Q04DX003 (ip), vehicle: Klucel (hydroxypropylcellulose) (HPC)) 110 % of control; (dose: 50.0 mg/kg/injection, schedule: Q04DX003 (ip), vehicle: Klucel (hydroxypropylcellulose) (HPC)) 106 % of control; (dose: 100.0 mg/kg/injection, schedule: Q04DX003 (ip), vehicle: Klucel (hydroxypropylcellulose) (HPC)) 100 % of control and 107 % of control.
For the compound `Cc1cc(Cl)c2ccc(N(C)C)cc2n1`, the T/C runs as follows: under setting [1], 119 % of control; under setting [9], 112 % of control; under setting [10], 110 % of control.
Turning to `CCN(CC)CCN1CC(=O)N2Cc3ccccc3CN2C(=O)C1`, the T/C under setting [7] was 101 % of control and the T/C under setting [8] was 104 % of control.
With `O=CC(CO)C(C=O)n1ncc2ccccc21` (stereo not drawn), the T/C is, setting by setting: (dose: 4.0 mg/kg/injection, schedule: Q01DX009 (ip), vehicle: saline with Tween-80) 120 % of control; (dose: 8.0 mg/kg/injection, schedule: Q01DX001 (ip), vehicle: suspension in saline) 108 % of control; (dose: 16.0 mg/kg/injection, schedule: Q01DX001 (ip), vehicle: saline) 107 % of control; (dose: 16.0 mg/kg/injection, schedule: Q01DX001 (ip), vehicle: suspension in saline) 98 % of control; (dose: 16.0 mg/kg/injection, schedule: Q01DX009 (ip), vehicle: saline with Tween-80) 119 % of control; (dose: 32.0 mg/kg/injection, schedule: Q01DX001 (ip), vehicle: saline) 107 % of control and 116 % of control. Further, the T/C (dose: 32.0 mg/kg/injection, schedule: Q01DX001 (ip), vehicle: suspension in saline) is 94 % of control; the T/C (dose: 64.0 mg/kg/injection, schedule: Q01DX001 (ip), vehicle: saline) was 172 % of control; the T/C (dose: 64.0 mg/kg/injection, schedule: Q01DX001 (ip), vehicle: suspension in saline) is 108 % of control.
